# Test results taken from patent publication US4668672A, “Feed compositions containing pyridylalkylhydrazides” (SmithKline Beckman Corporation, priority 1985, dated 1987).
# Values joined by “and” are separate entries in the source; they are usually repeats but may differ in a detail not shown here. Equal values may be shown once. Read-outs that look alike come from different tables or passages of the source.
# Columns and labels:
# [1] = Chick growth study; format: in vivo, broiler chicks; conditions: for response vs control in vivo at 10 ppm / response vs control in vivo at 50 ppm / response vs control in vivo at 40 ppm / response vs control in vivo at 49 ppm: Gallus gallus, feed or water, 408 h; for response vs control in vivo at 10 ppm: 10 ppm in feed; for response vs control in vivo at 50 ppm: 50 ppm in feed; for feed conversion / weight gain: chickens; for response vs control in vivo at 40 ppm: 40 ppm in feed; for response vs control in vivo at 49 ppm: 49 ppm in feed
# Procedure: 512 Day old broiler chicks, selected for weight, health and sex, are housed in an environmentally controlled room with temperature at 37.7° and humidity at 40%. Chicks are fed ad libitum. Water is offered ad libitum. A corn or, preferably, rye basal ration is fed during the acclimation period (days 1 and 2), then, mixed with the compound under test or used as a control on days 3-17. Either 8 or 16 chicks are used for each test or control group.
# [2] = test system: swine ileal or cecal inoculum (filtrate of cannula material); experiment: In vitro swine procedure (incubation of inoculum from cannulated swine, in vitro fistula procedure); set-up: species or system swine (Yorksire barrow)
# [3] = days 3-17, read-out: Feed Gain (3-17 day)
# [4] = days 3-17, read-out: Weight (17 day)
# [5] = 166.67 ppm, 5 hours at 37°, blank control = 100%
# [6] = 1.67 ppm, 5 hours at 37°, blank control = 100%
# [7] = 16.67 ppm, 5 hours at 37°, blank control = 100%
# [8] = 50.0 (unit not given) in feed, days 3-17
# [9] = 116.67 ppm, 5 hours at 37°, blank control = 100%
compound,measurement,setting,value
CC(=NNC(=S)N1CCCCCC1)c1ccccn1 [Compound 10],response vs control in vivo at 10 ppm,[1]; [3],92.3%
same,response vs control in vivo at 10 ppm,[1]; [4],110%
same,response vs control in vivo at 50 ppm,[1]; [3],80.6%
same,response vs control in vivo at 50 ppm,[1]; [4],103%
CC(=NNC(=S)N1CCCCCC1)c1ccccn1 [hexahydro-1H-azepine-1-carbothioic acid [1-(2-pyridinyl)-ethylidinyl]hydrazide],feed conversion,[1]; fed at 10 and 50 ppm,better feed conversion
same,weight gain,[1]; fed at 10 and 50 ppm,increased weight gain
CC(=NNC(=S)N1CC2CCC(CC2)C1)c1ccccn1 [drawing 6],VFA (total of volatile fatty acids),[2],97 % of Control Values
same,LYS (lysine),[2]; [5],107 % of Control Values
COC(=O)NN=Cc1ccccn1 [drawing 12],response vs control in vivo at 50 ppm,[1]; [3],86.4%
same,response vs control in vivo at 50 ppm,[1]; [4],119%
3-azabicyclo[3.2.2]nonane-3-carbothioic acid 2-[1-(2-pyridyl)ethyl]hydrazide,feed conversion,[1]; fed at 50 ppm,better feed conversion
same,weight gain,[1]; fed at 50 ppm,increased weight gain
CC(=NNC(N)=S)c1ccccn1 [drawing 14],response vs control in vivo at 50 ppm,[1]; [3],91.2%
same,response vs control in vivo at 50 ppm,[1]; [4],107%
COC(=O)NN=Cc1ccccn1 [drawing 4],LYS (lysine),[2]; [6],65 % of Control Values
same,VFA (total of volatile fatty acids),[2]; [6],90 % of Control Values
same,LYS (lysine),[2]; [7],140 % of Control Values
same,VFA (total of volatile fatty acids),[2]; [7],104 % of Control Values
same,LYS (lysine),[2]; [5],109 % of Control Values
same,VFA (total of volatile fatty acids),[2]; [5],109 % of Control Values
COC(=O)NN=C(C)c1ccccn1 [drawing 3],LYS (lysine),[2]; [6],70 % of Control Values
same,LYS (lysine),[2]; [7],134 % of Control Values
same,VFA (total of volatile fatty acids),[2]; [7],94 % of Control Values
same,LYS (lysine),[2]; [5],99 % of Control Values
same,VFA (total of volatile fatty acids),[2]; [5],88 % of Control Values
COC(=O)NN=C(C)c1ccccn1 [drawing 13],response vs control in vivo at 50 ppm,[1]; [3],94%
same,response vs control in vivo at 50 ppm,[1]; [4],110%
CC(=NNC(N)=S)c1ccccn1 [drawing 5],GLU (glucose),[2]; [5],147 % of Control Values
same,LAC (L lactic acid),[2]; [5],88 % of Control Values
same,LYS (lysine),[2]; [5],137 % of Control Values
same,VFA (total of volatile fatty acids),[2]; [5],43 % of Control Values
COC(=O)NN=Cc1ccncc1,response vs control in vivo at 40 ppm,[1]; [3],102%
same,response vs control in vivo at 40 ppm,[1]; [4],96.9%
CC(=NNC(=S)N1CCCCC1)c1ccccn1 [drawing 2],LYS (lysine),[2]; [5],23 % of Control Values and 18 % of Control Values
same,VFA (total of volatile fatty acids),[2]; [5],63 % of Control Values
CC(=NNC(=S)N1CCCCC1)c1ccccn1 [drawing 9],response vs control in vivo at 10 ppm,[1]; [3],92.3%
same,response vs control in vivo at 10 ppm,[1]; [4],110%
same,response vs control in vivo at 50 ppm,[1]; [3],80.6%
same,response vs control in vivo at 50 ppm,[1]; [4],103%
Virginiamycin [reference compound],Feed Gain (3-17 day),[1]; [8],85.0 % of Control
same,Weight (17 day),[1]; [8],118.9 % of Control
same,GLU (glucose),[2],190 % of Control Values
same,LAC (L lactic acid),[2]; [9],17 % of Control Values
same,LYS (lysine),[2]; [9],171 % of Control Values
same,VFA (total of volatile fatty acids),[2]; [9],25 % of Control Values
CC(=NNC(=S)N1CC2CCC(CC2)C1)c1ccccn1 [drawing 15],response vs control in vivo at 49 ppm,[1]; [3],84.1%
same,response vs control in vivo at 49 ppm,[1]; [4],102%
CSC(=S)NN=C(C)c1ccccn1 [drawing 16],response vs control in vivo at 40 ppm,[1]; [3],86.6%
same,response vs control in vivo at 40 ppm,[1]; [4],72.8%
CSC(=S)NN=C(C)c1ccccn1 [drawing 7],GLU (glucose),[2]; [5],95 % of Control Values
same,LAC (L lactic acid),[2]; [5],113 % of Control Values
same,LYS (lysine),[2]; [5],103 % of Control Values
same,VFA (total of volatile fatty acids),[2]; [5],89 % of Control Values
CC(=NNC(=S)N1CC2CCC(CC2)C1)c1ccccn1 [drawing 8],response vs control in vivo at 50 ppm,[1]; [3],80.6%
same,response vs control in vivo at 50 ppm,[1]; [4],103%
COC(=O)NN=Cc1cccnc1,response vs control in vivo at 50 ppm,[1]; [3],102%
same,response vs control in vivo at 50 ppm,[1]; [4],98.4%
